Results from ChEMBL document CHEMBL3808343, “Glutaminase GLS1 Inhibitors as Potential Cancer Treatment” (ACS Med Chem Lett, 2016).

Experiments:
[1] = molecular target: T1, Glutaminase kidney isoform, mitochondrial (Homo sapiens, UniProt O94925)
T1 sequence (O94925 whole entry): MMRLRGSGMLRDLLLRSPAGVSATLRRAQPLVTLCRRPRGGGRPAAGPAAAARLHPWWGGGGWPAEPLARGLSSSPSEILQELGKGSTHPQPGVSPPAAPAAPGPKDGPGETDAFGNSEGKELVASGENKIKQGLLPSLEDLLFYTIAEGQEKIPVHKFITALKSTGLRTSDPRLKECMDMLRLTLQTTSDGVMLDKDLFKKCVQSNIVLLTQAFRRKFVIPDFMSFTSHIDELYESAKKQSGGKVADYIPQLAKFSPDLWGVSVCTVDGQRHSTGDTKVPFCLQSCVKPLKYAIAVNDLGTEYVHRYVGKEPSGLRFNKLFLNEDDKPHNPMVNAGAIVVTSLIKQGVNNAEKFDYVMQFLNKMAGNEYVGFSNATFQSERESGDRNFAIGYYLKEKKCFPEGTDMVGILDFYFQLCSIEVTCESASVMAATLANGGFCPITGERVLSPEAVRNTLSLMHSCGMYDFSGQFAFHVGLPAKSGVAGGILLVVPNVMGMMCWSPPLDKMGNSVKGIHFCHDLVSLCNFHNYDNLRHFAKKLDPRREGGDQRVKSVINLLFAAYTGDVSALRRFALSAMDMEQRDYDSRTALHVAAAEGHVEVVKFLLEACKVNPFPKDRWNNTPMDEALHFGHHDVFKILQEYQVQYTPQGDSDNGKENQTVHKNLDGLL
Description: Inhibition of 6His-tagged GLS1 (63-669 residues) (unknown origin) expressed in Escherichia coli using glutamine as substrate after 15 mins by Glutamate Oxidase/ AmplexRed coupled assay

[2] = molecular target: T1, Glutaminase kidney isoform, mitochondrial; test: Inhibition of GLS1 in human PC3 cells assessed as cellular glutamate depletion levels after 6 hrs by Glutamate Oxidase/ AmplexRed coupled assay; format: cell-based, PC-3
NCI-H1703 = test: Antiproliferative activity against human NCI-H1703 cells assessed as reduction in cell growth after 5 days by Sytox Green dye based assay; format: functional; details: NCI-H1703, 120 h

| Structure (SMILES) | IC50 [1] [nM] | IC50 [2] [nM] | IC50 (NCI-H1703) [nM] |
| --- | --- | --- | --- |
| COc1cc([C@@H](OC)C(=O)Nc2nnc(N[C@@H]3CCN(c4cncnn4)C3)s2)ccc1F | 70.7 | 4.99 | 107 |
| COc1ccc([C@H](OC)C(=O)Nc2nnc(N[C@@H]3CCN(c4cccnn4)C3)s2)cc1 | – | – | 10.8 |
| CO[C@H](C(=O)Nc1nnc(N[C@@H]2CCN(c3cncnn3)C2)s1)c1ccccc1 | – | – | 3.24 |
